From patent publication US20100160294A1 (Cypress Biosciences, Inc., priority 2008, published 2010)

Experiments:
[1] = Example 4: tolerability study of mirtazapine and betahistine in normal healthy subjects; assay type: in vivo, human; conditions: 6 weeks; 15 mg mirtazapine in the evening, 8 mg betahistine in the morning, or 8 or 16 mg betahistine + 15 mg mirtazapine
Method: (§1) The subjects receive 2 capsules per day, one in the morning and one at bedtime. […] All medications are administered in an over-encapsulated format that ensures blinding of study participants, staff and investigators. All subjects are scheduled to receive a total of 6 weeks of therapy, and are required to return to the clinics after 1, 2, 4 and 6 weeks of therapy. Patients are required to complete paper self-assessments, electronic diary assessments, computer based cognitive testing, as well as vital signs and weight assessments at the clinic visits.

[2] = Example 1: tolerability study of mirtazapine and reboxetine in normal healthy subjects; assay type: in vivo, human; conditions: 6 weeks; 15 mg mirtazapine in the evening, 2 mg reboxetine in the morning, or 2 or 4 mg reboxetine + 15 mg mirtazapine
Method: as §1

[3] = cited from earlier work
[4] = tested on: 5-HT and NA reuptake sites; conditions: ratio of Ki for serotonin reuptake to Ki for norepinephrine reuptake; from U.S. Pat. No. 6,642,235; cited from earlier work

CN1CCN2c3ncccc3Cc3ccccc3C2C1 (stereo not drawn) [mirtazapine, 1,2,3,4,10,14b-hexahydro-2-methylpyrazino [2,1-a]pyrido[2,3-c]benzazepine]
side effects [1]: weight gain, sedation, and cognitive deficits
side effects [2]: weight gain, sedation, and cognitive deficits

CN(C)CCC=C1c2ccccc2CCc2ccccc21 [amitriptyline]
appetite increase reported, share of patients ([3]; controlled studies, placebo 2%): 6%
weight gain of greater than or equal to 7% of body weight, share of patients ([3]; same controlled trials, placebo 0%): 5.9%

CNCCc1ccccn1 [betahistine, 2-[2-(methylamino)ethyl]pyridine]
side effects [1]: insomnia, nausea/vomiting, and weight loss

CCOc1ccccc1OC(c1ccccc1)C1CNCCO1 (racemic) [reboxetine, 2-[(2-ethoxyphenoxy)-phenyl-methyl]morpholine]
side effects [1]: insomnia, nausea/vomiting, and weight loss
norepinephrine reuptake inhibitor selectivity (Ki5HT/KiNA) [4]: about 80
side effects [2]: insomnia, nausea/vomiting, and weight loss

(S,S)reboxetine
norepinephrine reuptake inhibitor selectivity (Ki5HT/KiNA) [4]: about 12,700
